Results: US8475775B1, “Retinoids and use thereof” (The UAB Research Foundation, priority 2012, dated 2013)

Assays:
Format in all cases: in vivo
hairless SKH1-E mice [1] = test: Epidermal hyperplasia on dorsal skin (marker of retinoid activity), 14-day topical application; conditions: for epidermal hyperplasia grading, average: dorsal skin, scale of 0=none to 5=marked
Procedure: (§1) UAB30, 4Me-UAB30 and UAB111 at 0.1% and 0.3%, tazarotene at 0.1% and vehicle were applied topically on approximately 8 cm2 (2×4 cm) of the dorsal skin (100 μL) and on the right ear (20 μL).
(§2) The test compounds were UAB30, 4Me-UAB30 and UAB111. Tazarotene (0.1% cream) was purchased by Ricerca Taiwan Ltd. The three compounds at 0.1% and 0.3%, Tazarotene (0.1% cream) and vehicle (70% ethanol/30% propylene glycol) were each administered topically on the back (100 μL) and on the right ear (20 μL) once daily for two weeks.
(§3) Female SKH1-E hairless mice (Crl:SKH1-Hrhr) weighing 22±2 g were used. The animals were divided into groups of 5 each. Once a day, 100 μl of vehicle, tazarotene, and test articles were applied on the back with a micropipette and smeared evenly with gloved finger on approximately 8 cm2 (2×4 cm) of the dorsal skin; 20 μl was applied to the right ear. The tested animals were treated for two consecutive weeks. Body weight was monitored twice a week.
(§4) Epidermal hyperplasia on the dorsal skin was used as a marker of retinoid activity. For histological evaluation, mice were sacrificed on day 15. The dorsal skin was dissected and stretched to the natural size on the filter. Punch biopsies (ED 8 mm) were obtained, fixed in 10% buffered formalin, and embedded in paraffin. Five micro thick sections were cut, stained with H&E, and a representative section of each biopsy was selected for histological evaluation.
(§5) For histological evaluation, the dorsal skin was dissected and stretched to the natural size on the filter. Punch biopsies (ED 8 mm) were obtained, fixed in 10% buffered formalin, and embedded in paraffin. Five micro thick sections were cut, stained with H&E, and a representative section of each biopsy was selected for histological evaluation. Right ear was harvested on day 15 for measurements of myeloperoxidase activity by mouse MPO ELISA kit, a measure of neutrophil infiltrates.

hairless SKH1-E mice [2] = test: Skin irritation on dorsal skin (erythema, desquamation, lesions/abrasion), visual score; conditions: for Mean skin irritation score: scale of 0-4
Procedure: as §1, §2, §3
Erythema, desquamation (skin flaking), and skin lesions/abrasion on dorsal skin were assessed visually in individual animals at the end of a 2-week treatment and scored on a scale of 0 to 4+, with 4+being maximal. • 0: Normal • 1+: Mild erythema • 2+: Moderate erythema • 3+: Severe erythema/Desquamation • 4+: Lesions/abrasion.

hairless SKH1-E mice [3] = test: Ear myeloperoxidase (MPO) by mouse MPO ELISA kit, measure of neutrophil infiltrates; conditions: harvested day 15
Procedure: as §1, §2, §3, §5

hairless SKH1-E mice [4] = test: Histopathology of dorsal skin: hyperkeratosis/serocellular crust, utriculus formation, sebaceous gland hyperplasia; conditions: of 5 mice per group
Procedure: as §3, §4, §5

[5] = 0.1% topical once daily for 14 days
[6] = 0.1% topical 20 μL on right ear for 14 days

| SMILES | epidermal hyperplasia grading, average (hairless SKH1-E mice [1]; [5]) | Mean skin irritation score (hairless SKH1-E mice [2]; 0.1% topical for 14 days) | ear Myeloperoxidase (MPO), marker of neutrophil infiltration (hairless SKH1-E mice [3]; [6]) | epidermal hyperplasia grading, average (hairless SKH1-E mice [1]; 0.3% topical once daily for 14 days) | incidence of epidermal hyperplasia compared to 0.1% Tazarotene (hairless SKH1-E mice [1]; 14-day topical, histopathology, concentration not specified (0.1% and 0.3% groups)) | skin irritation, observation in words (hairless SKH1-E mice [2]; 0.1% topical for 14 days, groups of 5) | Mean skin irritation score (hairless SKH1-E mice [2]; 0.3% topical for 14 days) | ear Myeloperoxidase (MPO), marker of neutrophil infiltration (hairless SKH1-E mice [3]; 0.3% topical 20 μL on right ear for 14 days) | Hyperkeratosis and/or serocellular crust, number of mice affected (hairless SKH1-E mice [4]; 0.1% topical for 14 days) | Hyperkeratosis and/or serocellular crust, number of mice affected (hairless SKH1-E mice [4]; 0.3% topical for 14 days) |
| --- | --- | --- | --- | --- | --- | --- | --- | --- | --- | --- |
| CCOC(=O)c1ccc(C#Cc2ccc3c(c2)C(C)(C)CCS3)nc1 [Tazarotene, reference compound] | 2 | 3 | marked increase | – | – | – | – | – | – | – |
| CC(=C/C=C/C(C)=C/C(=O)O)/C=C1\CCCc2ccccc21 [UAB30, (2E,4E,6E,8E)-8-(3′,4′-Dihydro-1′(2′H)-naphthalen-1′-ylidene)3,7-dimethyl-2,4,6-octatrienoic acid] | 1.8 | – | no effect | 2 | comparable incidence | did not cause any irritation | 1 | no effect | 1 | not reported |
